Data published in patent US4778824A, “Method for suppressing a transplantation immunity and treating an allergic disease and an autoimmune disease” (Zaidan Hojin Biseibutsu Kagaku Kenkyu Kai, priority 1984, dated 1988).
Structures can show the parent of a compound that is named as a salt.

Assays:
IgM antibody production = test: Inhibition of IgM antibody production against sheep red blood cells (plaque-forming cells); format: in vivo, CDF 1 mice; settings: 3 days; for IgM plaque-forming cell count: ± S.D.
Text: Additionally, in accordance with the method of Jerne et al. (Jerne et al., Cell-bound Antibodies, pp. 109-122, 1963), the inventors examined the inhibitory action of spergualin on humoral immunity which is primarily the domain of the B-lymphocytes. The test procedure consisted of counting the number of spleen cells that were extracted from mice sensitized by antigenic sheep red blood cells and which formed immunoglobulin M (IgM) plaques. […] As summarized in Experiments 4 and 5 spergualin inhibited the production of IgG and IgE.
CDF 1 mice (6-10 wk old, female) were immunized by intravenous injection of 1×10^8 sheep red blood cells. The mice were intraperitoneally administered varying doses (see Table 3 below) of the test compound for a period of 3 days starting from the day following the intravenous injection. Four days later, spleen cells were isolated from the mice and the number of IgM plaque-forming cells was counted by a known method (Yata et al.; Gan to Kagaku Ryoho (Cancer and Chemotherapy), vol. 2, pp. 903-908, 1975). The percentage inhibition of IgM antibody production was calculated by (1-B/A)×100 wherein A is the count for a control group (given physiological saline) and B, for the treated group.

IgG antibody production = test: Inhibition of IgG antibody production against sheep red blood cells (plaque-forming cells); format: in vivo, CDF 1 mice; settings: 50 mg/kg/day i.p.; for IgG plaque forming cell count: ± S.D., significant (P < 0.0001); for inhibition at 50 mg/kg/day: Mus musculus, Erythrocyte, ip, IgG
Method: CDF 1 mice (6-10 wk old, female) were immunized by intravenous injection of 1×10^8 sheep red blood cells. The mice were intraperitoneally administered 50 mg/kg/day of the test compound for a period of 4 days starting on the day following the immunization or 3 days after that day. Seven days after the sensitization, spleen cells were isolated and the number of IgG plaque forming cells was counted by a known method (Yata et al., supra). As in Experiment 3, the percentage inhibition of IgG antibody production was determined.

Allokiller T-lymphocyte = test: Inhibition of allokiller T-lymphocyte genesis (51Cr release from P815 mastocytoma); format: in vivo, C 57 BL/b mice
Method: 3×10^7 P815 mastocytoma cells were administered intraperitoneally to C 57 BL/b mice (10 wk old). Twelve days later, spleen cels were isolated and used as effector cells (E). Target cells (T) which were ^51 Cr labelled P815 mastocytoma cells were challenged by the effector cells at varying E/T ratios and the allokiller activity was assayed in terms of the percentage release ^51 Cr. Spergualin was administered for nine consecutive days starting on the day following the transplantation or a single administration was made on the 9th day.

[1] = system: graft-versus-host disease; test: Delay of graft-versus-host disease in irradiated CBA mice transplanted with C57BL/6 bone marrow cells and spleen cells; format: in vivo; settings: Donor C57BL/6, 10 days
Method: Female CBA mice of 9 week-old and female C57BL/6 mice of 9 week-old were used. A group consisted of 10 mice. Bone marrow cells (10^7) and spleen cells (5×10^6) from CBA mice and C57BL/6 mice were injected i.v. into the whole body irradiation (850 rad) CBA mice. Spergualin was administered i.p. once a day for 10 days starting on one day after the injection of bone marrow cells and spleen cells. The data is indicated as the median survival time.

For N=C(N)NCCCCC(O)CC(=O)NC(O)C(=O)NCCCCNCCCN (stereo not shown) [spergualin (trihydrochloride)], the “IgM plaque-forming cell count” value (IgM antibody production; 1 mg/kg/day i.p.) was 1,304 ± 188 cells/10^6 spleen cells × 100, the “IgM plaque-forming cell count” value (IgM antibody production; 5 mg/kg/day i.p., significant (P < 0.001)) was 632 ± 87 cells/10^6 spleen cells × 100 and the “IgM plaque-forming cell count” value (IgM antibody production; 10 mg/kg/day i.p., significant (P < 0.001)) was 392 ± 87 cells/10^6 spleen cells × 100. For the same compound, the “IgM plaque-forming cell count” value (IgM antibody production; 25 mg/kg/day i.p., significant (P < 0.001)) was 149 ± 53 cells/10^6 spleen cells × 100, the “IgM plaque-forming cell count” value (IgM antibody production; 50 mg/kg/day i.p., significant (P < 0.001)) was 64 ± 24 cells/10^6 spleen cells × 100 and the inhibition at 1 mg/kg/day (IgM antibody production; Mus musculus, Erythrocyte, ip, 72 h, IgM, 1 mg/kg/day i.p.) was 10.3%. For the same compound, the inhibition at 5 mg/kg/day (IgM antibody production; Mus musculus, Erythrocyte, ip, 72 h, IgM, 5 mg/kg/day i.p.) was 56.5%, the inhibition at 10 mg/kg/day (IgM antibody production; Mus musculus, Erythrocyte, ip, 72 h, IgM, 10 mg/kg/day i.p.) was 73% and the inhibition at 25 mg/kg/day (IgM antibody production; Mus musculus, Erythrocyte, ip, 72 h, IgM, 25 mg/kg/day i.p.) was 89.7%. The inhibition at 50 mg/kg/day (IgM antibody production; Mus musculus, Erythrocyte, ip, 72 h, IgM, 50 mg/kg/day i.p.) was 95.5%, the “IgG plaque forming cell count” value (IgG antibody production; days 1-4 after sensitization) was 17 ± 16 cells/10^6 spleen cells and the “IgG plaque forming cell count” value (IgG antibody production; days 3-6 after sensitization) was 19 ± 15 cells/10^6 spleen cells. The inhibition at 50 mg/kg/day (IgG antibody production; days 1-4 after sensitization) was 96.7%, the inhibition at 50 mg/kg/day (IgG antibody production; days 3-6 after sensitization) was 96.3% and the “Percent release of ^51 Cr” value (Allokiller T-lymphocyte; 5 mg/kg/day, days 1-9 after transplantation, E/T ratio 5) was 6%. For the same compound, the “Percent release of ^51 Cr” value (Allokiller T-lymphocyte; 5 mg/kg/day, days 1-9 after transplantation, E/T ratio 10) was 8%, the “Percent release of ^51 Cr” value (Allokiller T-lymphocyte; 5 mg/kg/day, days 1-9 after transplantation, E/T ratio 20) was 17% and the “Percent release of ^51 Cr” value (Allokiller T-lymphocyte; 50 mg/kg, single administration day 9, E/T ratio 5) was 21%. The “Percent release of ^51 Cr” value (Allokiller T-lymphocyte; 50 mg/kg, single administration day 9, E/T ratio 10) was 30%, the “Percent release of ^51 Cr” value (Allokiller T-lymphocyte; 50 mg/kg, single administration day 9, E/T ratio 20) was 51% and the “Percent release of ^51 Cr” value (Allokiller T-lymphocyte; 50 mg/kg/day, days 1-9 after transplantation, E/T ratio 5) was 0%. The “Percent release of ^51 Cr” value (Allokiller T-lymphocyte; 50 mg/kg/day, days 1-9 after transplantation, E/T ratio 10) was 0%, the “Percent release of ^51 Cr” value (Allokiller T-lymphocyte; 50 mg/kg/day, days 1-9 after transplantation, E/T ratio 20) was 1% and the “80-day survivors, Survivors/Total” value ([1]; 3.13 mg/kg i.p. once a day) was 2/10. For the same compound, the “MST (median survival time)” value ([1]; 3.13 mg/kg i.p. once a day) was 33.0 days, the “80-day survivors, Survivors/Total” value ([1]; 6.25 mg/kg i.p. once a day) was 3/10 and the “MST (median survival time)” value ([1]; 6.25 mg/kg i.p. once a day, P < 0.05) was 45.3 days. For the same compound, the “80-day survivors, Survivors/Total” value ([1]; 12.5 mg/kg i.p. once a day) was 4/10, the “MST (median survival time)” value ([1]; 12.5 mg/kg i.p. once a day, P < 0.01) was 55.0 days and the “80-day survivors, Survivors/Total” value ([1]; 25.0 mg/kg i.p. once a day) was 9/10. The “MST (median survival time)” value ([1]; 25.0 mg/kg i.p. once a day, P < 0.01) was greater than 80.0 days.
